# In US11135193B2, “Composition containing monoacetyldiacylglycerol compound as active ingredient for preventing or treating asthma” (Enzychem Lifesciences Corporation, priority 2013, dated 2021):
# Like-named read-outs stand apart in the source and are kept apart here. Marks after values point to notes of the source that are not given here.
# Assays:
# sepsis animal model = conditions: cecal-ligation-puncture sepsis model; cited from earlier work
# [1] = test system: ovalbumin-induced asthma Balb/c mice; test: Airway hyperresponsiveness (Pehn, plethysmography) in ovalbumin-induced asthma model; assay type: in vivo, mouse
# Protocol: (§1) 6-week-old female SPF (specific pathogen-free) Balb/c mice (average weight: 20 g) were purchased from Samtako (Korea). The animals were sufficiently fed with solid feed (antibiotic-free, Samyang Feed Co.) and water until the start point of the experiment, and acclimated at a temperature of 22±2° C., a humidity of 55±15%, and a 12-hr light/12-hr dark cycle for 1 week, and then used in experiments. After 1 week of the acclimation period as described above, the mice were sensitized by intraperitoneal administration of a suspension of 2 mg of aluminum oxide (A8222, Sigma-Aldrich, MO, USA) and 20 μg of ovalbumin (A5503, Sigma-Aldrich) in 200 μl of phosphate buffered saline at two-week intervals. During a period from day 21 to day 23 after the first intraperitoneal administration of ovalbumin, 1% ovalbumin was inhaled into the mice for 30 minutes using an ultrasonic nebulizer (NE-U12, Omron Corp., Japan). At 24 hours after the last ovalbumin challenge, the airway hyperresponsiveness of the mice was measured, and after 48 hours, the mice were anesthetized by intraperitoneal administration of Pentobarbital (50 mg/kg, Entobal, Hanil, Korea). Then, blood was collected through the saphenous vein, and the mice were subjected to tracheostomy. Next, each of the mice was subjected to bronchoalveolar lavage with a total of 1.4 ml of PBS to collect an analytical sample. […] The drug and the sample were administered orally during a period from day 18 to day 23 after the first ovalbumin […] (FIG. 1). Seven mice were used per group.
# To measure airway hyperresponsiveness that is one of the major features of asthma, one chamber plethysmography (All Medicus, Korea) was used. The degree of airway resistance was evaluated by measuring enhanced pause (Pehn). For measurement of Pehn, the basis value was measured in a normal breathing state, and then PBS was inhaled for 3 minutes using an ultrasonic nebulizer, after which the Pehn value was measured for 3 minutes.
# [2] = test system: interleukins (IL-4, IL-5 and IL-13); test: Th2 cytokines in bronchoalveolar lavage fluid (ELISA), ovalbumin-induced asthma model; assay type: in vivo, mouse; conditions: BALF
# Protocol: as §1
# The production of interleukins (IL-4, IL-5 and IL-13) in the bronchoalveolar lavage fluid isolated from each mouse was measured using a commercially available enzyme-linked immunosorbent assay (ELISA) kit (R&D System, USA). The analysis of each cytokine was performed according to the manufacturer's instruction, and the absorbance at 450 nm was measured using an ELISA reader (Molecular Devices, USA).
# [3] = test system: ovalbumin-induced asthma Balb/c mice; test: Inflammatory cell count in bronchoalveolar lavage fluid, ovalbumin-induced asthma model; assay type: in vivo, mouse; conditions: BALF
# Protocol: as §1
# An increase in the number of eosinophils is one of the major features of asthma. Thus, in order to measure the number of eosinophils, the following experiment was performed. The bronchoalveolar lavage fluid from each mouse was stained with trypan blue immediately after collection, and the number of total cells (excluding dead cells) was calculated using a hemocytometer.
# [4] = test system: ovalbumin-induced asthma Balb/c mice; test: Histopathological examination of lung tissue (H&E, PAS staining), ovalbumin-induced asthma model; assay type: in vivo, mouse
# EL-4 cells [5] = conditions: mouse, 24 h
# Protocol: (§2) EL-4 cells that are mouse T lymphoma cells were suspended in 10% fetal bovine serum-containing RPMI medium (Gibco) at a concentration of 5×10^4 cells/ml, and 100 μl of the cell suspension was seeded into each well of a 96-well plate and cultured for 12 hours. Next, the cell culture was treated with monoacetyldiacylglycerol (MADG) compounds at the concentrations shown in Table 1 below, and was then additionally cultured for 24 hours. Next, according to the instruction provided in a CCK-8 kit (Dojindo) capable of counting cells, 10 μl of CCK-8 solution was added to the kit and allowed to react for 30 minutes to 4 hours, and then the absorbance (OD) at 570 nm was measured. In equation 1, the negative control group indicates a cell culture treated with 0.2% DMSO. […] Cell viability (%)=[(OD 570 nm value of MADC-treated group)/(OD 570 nm value of negative control group)]×100 Equation 1
# [6] = test system: serum IgE and ovalbumin-specific IgE; test: Serum IgE and ovalbumin-specific IgE (ELISA), ovalbumin-induced asthma model; assay type: in vivo, mouse
# Protocol: as §1
# The blood collected through the saphenous vein was incubated at room temperature for 30 minutes, and then centrifuged (3000 rpm, 15 min) to obtain serum. For measurement of serum IgE and ovalbumin-specific IgE, ELISA was used. IgE was measured using commercially available IgE (Biolegend Ins., USA). For measurement of ovalbumin-specific IgE, in a 96-well flat bottom ELISA plate, ovalbumin was dissolved in 0.1 M NaHCO3 buffer (pH 8.3) at a concentration of 20 μg/mL and incubated at 4° C. for 16 hours. Next, PBS containing 1% bovine serum albumin (BSA) was added to suppress nonspecific reactions. The serum sample was diluted at 1:400, allowed to react at room temperature for 2 hours, and then washed with PBS containing 0.05% Tween 20. Horseradish peroxidase (HRP)-conjugated goat […] polyclonal A was diluted 4000-fold and allowed to react at room temperature for 1 hour, and then color development was performed using 3,3′5,5′-tetramethylbenzidine substrate.
# EL-4 cells [7] = test: Cytotoxicity of monoacetyldiacylglycerol compounds in EL-4 cells (CCK-8 cell viability); conditions: 24 hours
# Protocol: as §2
# IL-4 mRNA = test: Inhibition of PMA-induced expression of IL-4 mRNA in EL-4 cells (PCR); assay type: cell-based, mouse; conditions: 20 μg/mL, PMA 1 ng/mL; for Inhibition (%) of IL-4 mRNA expression: compared to PMA-treated group
# Protocol: Based on the results of Example 1, each of the monoacetyldiacylglycerol compounds was added to EL-4 cells at a concentration of 20 μg/mL, and the effect thereof on the inhibition of PMA-induced expression of IL-4 mRNA in the EL-4 cells was measured. Specifically, the expression level of IL-4 mRNA induced by PMA (1 ng/mL) was measured using real-time polymerase chain reaction (real-time PCR) and quantitative real time polymerase chain reaction (qPCR). For cell preparation, EL-4 cells were seeded into a 6-well plate at a concentration of 1×10^6 cells/well and cultured for 12 hours, after which the cells were treated with each of the monoacetyldiacylglycerol compounds at a concentration of 20 μg/mL for 1 hour and treated with PMA at a concentration of 1 ng/ml, followed by culture for 12 hours. Total RNA was extracted from the cells using Trizol B (Invitrogen, USA) and quantified, and then cDNA was synthesized from the total RNA using an Omniscript RT kit (Qiagen, GmbH, Hilden, Germany). The synthesized cDNA as a template was mixed with each of the IL-4 and GAPDH primers shown in Table 2 below and was subjected to PCR using a PCR mix (PCR Master Mix, Bioneer, Korea) under the following conditions: denaturation at 94° C. for 5 minutes; and then 30 cycles, each consisting of 30 sec at 95° C., 45 sec at 60° C., and 45 sec at 72° C.; followed by enzyme inactivation at 72° C. for 10 minutes. The results of measuring the percent inhibition of expression of IL-4 mRNA in EL-4 cells as described above are shown in Table 3 below. The designation of each of the samples shown in Table 3 below is as described with respect to Table 1 above.
# [8] = methacholine 0 mg/mL, 30 mg/kg oral
# [9] = methacholine 12.5 mg/mL, 30 mg/kg oral
# [10] = methacholine 25 mg/mL, 30 mg/kg oral
# [11] = methacholine 50 mg/mL, 30 mg/kg oral
smiles,measurement,setting,value
"CCCCC/C=C\C/C=C\CCCCCCCC(=O)OC(COC(C)=O)COC(=O)CCCCCCCCCCCCCCC (stereo not drawn) [EC-18, 1-palmitoyl-2-linoleoyl-3-acetylglycerol]",survivability ratio of animals,sepsis animal model,Increases
same,Pehn value,[1]; [8],0.465 ± 0.08
same,Pehn value,"[1]; methacholine 0 mg/mL, 60 mg/kg oral",0.436 ± 0.08
same,Pehn value,[1]; [9],1.179 ± 0.49
same,Pehn value,"[1]; methacholine 12.5 mg/mL, 60 mg/kg oral",0.778 ± 0.15
same,Pehn value,[1]; [10],2.914 ± 0.67
same,Pehn value,"[1]; methacholine 25 mg/mL, 60 mg/kg oral",2.436 ± 0.68
same,Pehn value,[1]; [11],4.098 ± 0.78
same,Pehn value,"[1]; methacholine 50 mg/mL, 60 mg/kg oral",3.887 ± 0.59
same,airway hyperresponsiveness / Pehn value compared to asthma-induced group,"[1]; montelukast 30 mg/kg, EC-18 30 mg/kg and 60 mg/kg",significantly decreased
same,secretion of IL-4 compared to asthma-induced group,[2],significantly decreased
same,secretion of IL-5 compared to asthma-induced group,[2],significantly decreased
same,secretion of IL-13 compared to asthma-induced group,[2],significantly decreased
same,"Th2 cytokines, IL-4",[2]; 30 mg/kg oral,17.89 ± 3.46 pg/mL
same,"Th2 cytokines, IL-5",[2]; 30 mg/kg oral,24.12 ± 3.07 pg/mL
same,"Th2 cytokines, IL-13",[2]; 30 mg/kg oral,97.27 ± 12.80 pg/mL
same,"Th2 cytokines, IL-4",[2]; 60 mg/kg oral,17.09 ± 3.08 pg/mL
same,"Th2 cytokines, IL-5",[2]; 60 mg/kg oral,25.02 ± 2.91 pg/mL
same,"Th2 cytokines, IL-13",[2]; 60 mg/kg oral,81.10 ± 20.46 pg/mL
same,"Inflammatory cell number, Eosinophils",[3]; 30 mg/kg oral,93 ± 16.4* 10^5 per mouse
same,"Inflammatory cell number, Lymphocytes",[3]; 30 mg/kg oral,16 ± 8.7 10^5 per mouse
same,"Inflammatory cell number, Macrophages",[3]; 30 mg/kg oral,82 ± 25.5* 10^5 per mouse
same,"Inflammatory cell number, Neutrophils",[3]; 30 mg/kg oral,15 ± 8.4 10^5 per mouse
same,"Inflammatory cell number, Total cells",[3]; 30 mg/kg oral,221 ± 33.5* 10^5 per mouse
same,"Inflammatory cell number, Eosinophils",[3]; 60 mg/kg oral,112 ± 18.7* 10^5 per mouse
same,"Inflammatory cell number, Lymphocytes",[3]; 60 mg/kg oral,13 ± 8.7 10^5 per mouse
same,"Inflammatory cell number, Macrophages",[3]; 60 mg/kg oral,113 ± 27.4 10^5 per mouse
same,"Inflammatory cell number, Neutrophils",[3]; 60 mg/kg oral,12 ± 6.7 10^5 per mouse
same,"Inflammatory cell number, Total cells",[3]; 60 mg/kg oral,253 ± 12.8* 10^5 per mouse
same,number of eosinophils compared to asthma-induced group,[3]; groups administered with EC-18,decrease
same,number of total inflammatory cells compared to asthma-induced group,[3]; groups administered with EC-18,significant decrease
same,infiltration of inflammatory cells around the bronchi and blood vessels,[4]; H&E staining,decrease
same,mucus secretion from goblet cells of the bronchial epithelium,[4]; PAS staining,significantly decreased
same,"EL-4 cell viability (%, mean ± SD)",EL-4 cells [5]; 5 μg/ml,101.94 ± 1.47%
same,"EL-4 cell viability (%, mean ± SD)",EL-4 cells [5]; 10 μg/ml,97.54 ± 8.05%
same,"EL-4 cell viability (%, mean ± SD)",EL-4 cells [5]; 20 μg/ml,91.82 ± 3.48%
same,"EL-4 cell viability (%, mean ± SD)",EL-4 cells [5]; 50 μg/ml,92.67 ± 3.43%
same,"EL-4 cell viability (%, mean ± SD)",EL-4 cells [5]; 100 μg/ml,95.29 ± 2.89%
same,"EL-4 cell viability (%, mean ± SD)",EL-4 cells [5]; 200 μg/ml,99.74 ± 6.14%
same,ovalbumin-specific IgE compared to asthma-induced group,[6],significantly decreased
same,serum IgE compared to asthma-induced group,[6],significantly decreased
same,IgE,[6]; 30 mg/kg oral,2.35 ± 0.38 µg/mL
same,OVA specific IgE,[6]; 30 mg/kg oral,295.36 ± 77.93 µg/mL
same,IgE,[6]; 60 mg/kg oral,2.27 ± 0.46 µg/mL
same,OVA specific IgE,[6]; 60 mg/kg oral,287.79 ± 69.53 µg/mL
"CCCCC/C=C\C/C=C\CCCCCCCC(=O)OCC(COC(C)=O)OC(=O)CCCCCCCCCCCCCCC (stereo not drawn) [LPAG, 1-linoeoyl-2-palmitoyl-3-acetylglycerol]","EL-4 cell viability (%, mean ± SD)",EL-4 cells [7]; 5 μg/ml,99.67 ± 1.15%
same,"EL-4 cell viability (%, mean ± SD)",EL-4 cells [7]; 10 μg/ml,98.91 ± 0.50%
same,"EL-4 cell viability (%, mean ± SD)",EL-4 cells [7]; 20 μg/ml,99.13 ± 1.18%
same,Expression level of IL-4 mRNA (percentage relative to PMA-treated group),IL-4 mRNA,61.11 ± 27.49%
same,Inhibition (%) of IL-4 mRNA expression,IL-4 mRNA,38.89%
"CCCCC/C=C\C/C=C\CCCCCCCC(=O)OCC(COC(C)=O)OC(=O)CCCCCCCCCCCCCCCCC (stereo not drawn) [LSAG, 1-linoeoyl-2-stearoyl-3-acetylglycerol]","EL-4 cell viability (%, mean ± SD)",EL-4 cells [7]; 5 μg/ml,103.82 ± 1.80%
same,"EL-4 cell viability (%, mean ± SD)",EL-4 cells [7]; 10 μg/ml,101.85 ± 1.00%
same,"EL-4 cell viability (%, mean ± SD)",EL-4 cells [7]; 20 μg/ml,98.15 ± 1.82%
same,Expression level of IL-4 mRNA (percentage relative to PMA-treated group),IL-4 mRNA,41.62 ± 17.61%
same,Inhibition (%) of IL-4 mRNA expression,IL-4 mRNA,58.38%
"CC(C)(O)c1ccccc1CC[C@@H](SCC1(CC(=O)O)CC1)c1cccc(/C=C/c2ccc3ccc(Cl)cc3n2)c1 [Mon, montelukast, reference compound]",Pehn value,[1]; [8],0.590 ± 0.07
same,Pehn value,[1]; [9],1.261 ± 0.29
same,Pehn value,[1]; [10],3.046 ± 0.61
same,Pehn value,[1]; [11],4.182 ± 0.99
same,"Th2 cytokines, IL-4",[2]; 30 mg/kg oral,18.69 ± 3.00 pg/mL
same,"Th2 cytokines, IL-5",[2]; 30 mg/kg oral,22.74 ± 3.59 pg/mL
same,"Th2 cytokines, IL-13",[2]; 30 mg/kg oral,81.42 ± 25.59 pg/mL
same,"Inflammatory cell number, Eosinophils",[3]; 30 mg/kg oral,54 ± 17.8* 10^5 per mouse
same,"Inflammatory cell number, Lymphocytes",[3]; 30 mg/kg oral,11 ± 10.6 10^5 per mouse
same,"Inflammatory cell number, Macrophages",[3]; 30 mg/kg oral,99 ± 21.4* 10^5 per mouse
same,"Inflammatory cell number, Neutrophils",[3]; 30 mg/kg oral,14 ± 5.2 10^5 per mouse
same,"Inflammatory cell number, Total cells",[3]; 30 mg/kg oral,179 ± 44.0* 10^5 per mouse
same,IgE,[6]; 30 mg/kg oral,2.03 ± 0.49 µg/mL
same,OVA specific IgE,[6]; 30 mg/kg oral,198.15 ± 42.65 µg/mL
